Values belong to the compound of their own block, whether it stands above or below them. Non-standard residues stand in square brackets, D forms with d. Residues, ends and D or L forms follow the SMILES beside them. *: point of attachment. X1 = CN(C)c1ccc2c(c1)Oc1cc(N(C)C)ccc1C21OC(=O)c2ccc(C(=O)*)cc21; Bip = N[C@@H](Cc1ccc(-c2ccccc2)cc1)C(=O)O; Lauroyl = CCCCCCCCCCCC(=O)*
How the values were obtained:
[1] = Stability of Tam-labeled peptides in Calu-3 cell culture supernatant
Description: (§1) Peptide solutions were diluted as described above and incubated at 37 °C. Samples were precipitated in 2× ACN/EtOH (1:1, v/v) at −20 °C overnight and filtered through Costar Spin-X tubes. The solutions of Tam-labeled peptides diluted with H2O (1:1, v/v) were analyzed by RP-HPLC using a linear gradient of eluent B (0.1% TFA in H2O) in eluent A (0.08% TFA in ACN) over 40 min at 40 °C on a VariTide RPC column (250 mm × 4.6 mm, 200 Å, 6 μm, flow rate 1 mL/min, Agilent Technologies). The relative amount of intact peptide was determined by fluorescence intensity (extinction 525 nm, emission 572 nm). Half-life was calculated by one-phase decay in Prism 10. Furthermore, eluting peptides were collected, lyophilized, and analyzed by MALDI-ToF-MS.
HEK-293 cells were cultivated under standard conditions in Dulbecco’s modified Eagle’s medium (DMEM, Biowest)/Ham’s F12 (Biowest, 1:1, v/v) with 15% fetal bovine serum (FBS, Sigma-Aldrich). HEK-293 cells were detached with trypsin/ethylenediaminetetraacetic acid (Lonza) and seeded in a poly-D-lysine hydrobromide (Merck, 0.1 mg/mL)-coated 96-well cell culture microplate (Greiner Bio-One, 100,000 cells/well). The cells were grown under standard conditions. […] Cell differentiation was supported by culturing cells on an air–liquid interface for 10–14 days and monitored by measurement of transepithelial electrical resistance. […]

[2] = Stability of Tam-labeled peptides in HEK-293 cell culture supernatant; type: in vitro ADME; conditions: for half-life at 10 μM: DMEM with 15% FBS on HEK-293 cells
Description: The cells were grown under standard conditions. […] The medium was replaced with the peptide solutions.

[3] = Stability of Tam-labeled peptides in human blood plasma (RP-HPLC fluorescence, MALDI-ToF-MS); conditions: for half-life at 10 μM / remaining at 72 h, 10 μM: human
Description: as §1

[4] = HEK-293 supernatant (phenol red-free DMEM with 15% FBS); conditions: up to 72 h
[5] = human blood plasma/DPBS (1:1); conditions: 37 °C, up to 72 h

Compound: CCCCCCCCCCCC(=O)NCCCC[C@H](N)C(=O)N[C@H](C(=O)N[C@@H](CC(N)=O)C(=O)N1CCC[C@H]1C(=O)N[C@@H](CCCCNC(=O)c1ccc2c(c1)C1(OC2=O)c2ccc(N(C)C)cc2Oc2cc(N(C)C)ccc21)C(=O)N[C@@H](Cc1ccc(-c2ccccc2)cc1)C(=O)N[C@@H](CCCNC(=N)N)C(=O)N[C@@H](CC(C)C)C(=O)N[C@@H](CCCNC(=N)N)C(=O)N[C@@H](Cc1ccc(O)cc1)C(N)=O)[C@@H](C)CC [peptide 2, [K^27(Lau),K^31(Tam)]-sNPY(27–36)] (H-K(Lauroyl)INPK(X1)[Bip]RLRY-NH2; N-terminus assumed)
stability in Calu-3 supernatant compared to HEK-293 supernatant [1]: only slightly lower
half-life at 10 μM ([2]; human, 10 μM peptide): 23.3 h
half-life at 10 μM ([3]; plasma): 3.2 h
remaining at 72 h, 10 μM ([3]; plasma): 3%

half-life at 10 μM ([2]; human, 10 μM peptide): 57.1 h
half-life at 10 μM ([3]; human blood plasma diluted with DPBS (1:1), blood plasma half-life, human blood plasma/DPBS (1:1), 10 μM peptide, 37 °C, one-phase decay): 50.5 h
half-life at 10 μM ([3]; human blood plasma diluted with DPBS (1:1), donor plasma 3, half-life in plasma 3, donor comparison, plasma 3, plasma/DPBS (1:1), 10 μM, 37 °C): 57.4 h
Compound: CCCCCCCC(=O)NC[C@H](NC(=O)[C@H](CO)NC(=O)CN)C(=O)N[C@@H](Cc1ccccc1)C(=O)N[C@@H](CC(C)C)C(=O)N[C@@H](CO)C(=O)N1CCC[C@H]1C(=O)N[C@@H](CCC(=O)O)C(=O)N[C@@H](Cc1c[nH]cn1)C(=O)N[C@@H](CCC(N)=O)C(=O)N[C@@H](CCCNC(=N)N)C(=O)N[C@H](C(=O)N[C@@H](CCC(N)=O)C(=O)N[C@@H](CCC(N)=O)C(=O)N[C@@H](CCCNC(=N)N)C(=O)N[C@@H](CCCCNC(=O)c1ccc2c(c1)C1(OC2=O)c2ccc(N(C)C)cc2Oc2cc(N(C)C)ccc21)C(=O)N[C@@H](CCC(=O)O)C(=O)N[C@@H](CO)C(=O)N[C@@H](CCCCN)C(=O)N[C@@H](CCCCN)C(=O)N1CCC[C@H]1C(=O)N1CCC[C@H]1C(=O)N[C@@H](C)C(=O)N[C@@H](CCCCN)C(=O)N[C@@H](CC(C)C)C(=O)N[C@@H](CCC(N)=O)C(=O)N1CCC[C@H]1C(=O)N[C@@H](CCCNC(=N)N)C(=O)O)C(C)C [peptide 3, [Dpr^3,K^16(Tam)]-Ghr]

cleavage products detected by MALDI-ToF MS, Calu-3 supernatant ([1]; HPLC eluents): strong C- and N-terminal truncation
cleavage products detected by MALDI-ToF MS, HEK-293 supernatant ([2]; HPLC eluents): no cleavage was observed
metabolised at 72 h, 10 μM ([2]; human, HEK-293 cell culture supernatant, 10 μM peptide, DMEM with 15% FBS, 72 h, read-out: degradation over 72 h in HEK-293 supernatant): < 10%
cleavage products detected by MALDI-ToF MS, blood plasma ([3]; HPLC eluents): no cleavage was observed
remaining at 72 h, 10 μM ([3]; human blood plasma): ~90%
Compound: CCCCCCCC(=O)NC[C@H](NC(=O)[C@H](CO)NC(=O)CN)C(=O)N[C@@H](Cc1ccccc1)C(=O)N[C@@H](CC(C)C)C(=O)N[C@@H](CO)C(=O)N1CCC[C@H]1C(=O)N[C@@H](CCC(=O)O)C(=O)N[C@@H](Cc1c[nH]cn1)C(=O)N[C@@H](CCC(N)=O)C(=O)N[C@@H](CCCNC(=N)N)C(=O)N[C@H](C(=O)N[C@@H](CCC(N)=O)C(=O)N[C@@H](CCC(N)=O)C(=O)N[C@@H](CCCNC(=N)N)C(=O)N[C@@H](CCCCNC(=O)c1ccc2c(c1)C1(OC2=O)c2ccc(N(C)C)cc2Oc2cc(N(C)C)ccc21)C(=O)N[C@@H](CCC(=O)O)C(=O)N[C@@H](CO)C(=O)N[C@@H](CCCCN)C(=O)N[C@@H](CCCCNC(=O)CCCCCCCCCCCCCCCCC(=O)O)C(=O)N1CCC[C@H]1C(=O)N1CCC[C@H]1C(=O)N[C@@H](C)C(=O)N[C@@H](CCCCN)C(=O)N[C@@H](CC(C)C)C(=O)N[C@@H](CCC(N)=O)C(=O)N1CCC[C@H]1C(=O)N[C@@H](CCCNC(=N)N)C(=O)O)C(C)C [peptide 4, [Dpr^3,K^16(Tam),K^20(Odd)]-Ghr]

not cleaved [4]: degradation of less than 10% over 72 h
not cleaved [5]: around 90% intact peptide after 72 h
Compound: GS-Dpr(Oct)-FLSPEHQRVQQRK(Tam)ESKK(Odd)PPAKLQPR
